# Measurements published in patent US12398120B2, “Substituted hydantoinamides as ADAMTS7 antagonists” (BAYER AKTIENGESELLSCHAFT, priority 2019, dated 2025).
# Target: ADAMTS4 (Homo sapiens (Human), UniProt O75173)
# Test: Selectivity assay for ADAMTS-7 modulators: ADAMTS4 (FRET substrate)
# Format: biochemical
# Conditions: ADAMTS4 (R&D 4307-AD) 50 nM, substrate Dabcyl-EEVKAKVQPY-Glu(Edans)-NH2 1 μM, 120 min, 32° C.
# In short: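 Human ADAMTS4 with compound in DMSO, or DMSO control; reaction started by adding FRET substrate in reaction buffer. Fluorescence increase measured at substrate-specific wavelengths. IC50 derived from % inhibition of enzyme activity versus compound concentration.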
# Sequence of ADAMTS4 (O75173 213-685): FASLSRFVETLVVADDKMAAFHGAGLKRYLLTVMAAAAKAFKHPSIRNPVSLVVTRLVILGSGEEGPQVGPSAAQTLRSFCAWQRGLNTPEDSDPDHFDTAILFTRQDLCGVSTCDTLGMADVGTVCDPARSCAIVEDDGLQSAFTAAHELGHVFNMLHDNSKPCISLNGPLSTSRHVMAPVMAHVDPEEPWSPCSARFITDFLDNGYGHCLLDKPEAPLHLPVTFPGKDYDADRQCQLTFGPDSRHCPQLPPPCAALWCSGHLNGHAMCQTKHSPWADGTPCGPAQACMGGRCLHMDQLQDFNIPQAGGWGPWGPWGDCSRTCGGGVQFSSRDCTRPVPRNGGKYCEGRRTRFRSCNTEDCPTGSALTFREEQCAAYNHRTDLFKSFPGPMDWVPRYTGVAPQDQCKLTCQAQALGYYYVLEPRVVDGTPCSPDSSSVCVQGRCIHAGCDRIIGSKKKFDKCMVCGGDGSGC
row,Compound,IC50 [µM]
1,"O=C1NC(=O)[C@](CNC(=O)c2ccccc2-c2ccc(C(F)(F)F)cc2)(C2CC2)N1 [Example 114, N-{[(4R)-4-Cyclopropyl-2,5-Dioxoimidazolidin-4-Yl]Methyl}-4′-(Trifluoromethyl)[Biphenyl]-2-Carboxamide]",10.2
2,"O=C1NC(=O)C(CNC(=O)c2ccccc2-c2ccc(C(F)(F)F)cc2)(c2cnccn2)N1 (racemic) [Example 30, Rac-N-{[2,5-Dioxo-4-(Pyrazin-2-Yl)Imidazolidin-4-Yl]Methyl}-4′-(Trifluoromethyl)[Biphenyl]-2-Carboxamide]",45
3,"Cc1sc(C(F)(F)F)nc1C1(CNC(=O)c2ccc(F)cc2-c2ccc(C(F)(F)F)cc2)NC(=O)NC1=O (racemic) [Example 303, Rac-5-Fluoro-N-({4-[5-Methyl-2-(Trifluoromethyl)-1,3-Thiazol-4-Yl]-2,5-Dioxoimidazolidin-4-Yl}Methyl)-4′-(Trifluoromethyl)[Biphenyl]-2-Carboxamide]",38
4,"Cc1scnc1C1(CNC(=O)c2ccccc2-c2ccc(C(F)(F)F)nc2)NC(=O)NC1=O (stereo not drawn) [Example 173, Ent-N-{[4-(5-Methyl-1,3-Thiazol-4-Yl)-2,5-Dioxoimidazolidin-4-Yl]Methyl}-2-[6-(Trifluoromethyl)Pyridin-3-Yl]Benzamide]",7.9
5,"CC(C)C1(CNC(=O)c2ccccc2-c2ccc(C(F)(F)F)cc2)NC(=O)NC1=O (stereo not drawn) [Example 209, Ent-N-[(4-Isopropyl-2,5-Dioxoimidazolidin-4-Yl)Methyl]-4′-(Trifluoromethyl)[Biphenyl]-2-Carboxamide]",36.5
6,"O=C1NC(=O)[C@](CNC(=O)c2ccc(F)c(F)c2-c2ccc(C(F)(F)F)cc2)(C2CC2)N1 [Example 23, N-{[(4R)-4-Cyclopropyl-2,5-Dioxoimidazolidin-4-Yl]Methyl}-5,6-Difluoro-4′-(Trifluoromethyl)[Biphenyl]-2-Carboxamide]",12.5
7,"O=C1NC(=O)C(CNC(=O)c2ccccc2-c2ccc(C(F)(F)F)cc2)(C2(Cl)CC2)N1 (racemic) [Example 279, Rac-N-{[4-(1-Chlorocyclopropyl)-2,5-Dioxoimidazolidin-4-Yl]Methyl}-4′-(Trifluoromethyl)[Biphenyl]-2-Carboxamide]",13
8,"O=C1NC(=O)[C@](CNC(=O)c2ccc(F)cc2-c2ccc(C3CC3)cc2)(C2CC2)N1 [Example 104, 4′-Cyclopropyl-N-{[(4R)-4-Cyclopropyl-2,5-Dioxoimidazolidin-4-Yl]Methyl}-5-Fluoro[Biphenyl]-2-Carboxamide]",8.7
9,"O=C1NC(=O)[C@](CNC(=O)c2cc(F)ccc2-c2ccc(Cl)cc2)(C2CC2)N1 [Example 233, 4′-Chloro-N-{[(4R)-4-Cyclopropyl-2,5-Dioxoimidazolidin-4-Yl]Methyl}-4-Fluoro[1,1′-Biphenyl]-2-Carboxamide]",6.5
10,"CC(C)C1(CNC(=O)c2ccccc2-c2ccc(C(F)(F)F)cc2)NC(=O)NC1=O (racemic) [Example 208, Rac-N-[(4-Isopropyl-2,5-Dioxoimidazolidin-4-Yl)Methyl]-4′-(Trifluoromethyl)[Biphenyl]-2-Carboxamide]",> 50
11,"O=C1NC(=O)C(CNC(=O)c2ccc(F)c(F)c2-c2ccc(C(F)(F)F)cc2)(C2(F)CC2)N1 (single isomer, unassigned; ent-5) [Example 298, Ent-5,6-Difluoro-N-{[4-(1-Fluorocyclopropyl)-2,5-Dioxoimidazolidin-4-Yl]Methyl}-4′-(Trifluoromethyl)[Biphenyl]-2-Carboxamide]",9.3
12,"O=C1NC(=O)C(CNC(=O)c2cccc(F)c2-c2ccc(C(F)(F)F)cc2)(C2(F)CC2)N1 (racemic) [Example 299, Rac-6-Fluoro-N-{[4-(1-Fluorocyclopropyl)-2,5-Dioxoimidazolidin-4-Yl]Methyl}-4′-(Trifluoromethyl)[Biphenyl]-2-Carboxamide]",19
13,"Cc1nscc1C1(CNC(=O)c2ccccc2-c2ccc(C(F)(F)F)cc2)NC(=O)NC1=O (racemic) [Example 63, Rac-N-{[4-(3-Methyl-1,2-Thiazol-4-Yl)-2,5-Dioxoimidazolidin-4-Yl]Methyl}-4′-(Trifluoromethyl)[Biphenyl]-2-Carboxamide]",13
14,"CC(C)C1(CNC(=O)c2cc(F)c(F)cc2-c2ccc(C(F)(F)F)cc2)NC(=O)NC1=O (single isomer, unassigned; ent-4) [Example 213, Ent-4,5-Difluoro-N-[(4-Isopropyl-2,5-Dioxoimidazolidin-4-Yl)Methyl]-4′-(Trifluoromethyl)[Biphenyl]-2-Carboxamide]",30
15,"O=C1NC(=O)C(CNC(=O)c2ccc(F)cc2-c2ccc(C(F)(F)F)cc2)(c2ncccc2C(F)(F)F)N1 (racemic) [Example 240, Rac-N-({2,5-Dioxo-4-[3-(Trifluoromethyl)Pyridin-2-Yl]Imidazolidin-4-Yl}Methyl)-5-Fluoro-4′-(Trifluoromethyl)[Biphenyl]-2-Carboxamide]",> 50
16,"O=C1NC(=O)[C@](CNC(=O)c2cccnc2-c2ccc(Cl)cc2)(C2CC2)N1 [Example 90, 2-(4-Chlorophenyl)-N-{[(4R)-4-Cyclopropyl-2,5-Dioxoimidazolidin-4-Yl]Methyl}Pyridine-3-Carboxamide]",50

row,Compound,IC50 [µM]
1,"Cn1nccc1C1(CNC(=O)c2ccccc2-c2ccc(C(F)(F)F)cc2)NC(=O)NC1=O (stereo not drawn) [Example 185, Ent-N-{[4-(1-Methyl-1H-Pyrazol-5-Yl)-2,5-Dioxoimidazolidin-4-Yl]Methyl}-4′-(Trifluoromethyl)[Biphenyl]-2-Carboxamide]",16.5
2,"Cc1conc1C1(CNC(=O)c2ccccc2-c2ccc(C(F)(F)F)cc2)NC(=O)NC1=O (stereo not drawn) [Example 69, Ent-N-{[4-(4-Methyl-1,2-Oxazol-3-Yl)-2,5-Dioxoimidazolidin-4-Yl]Methyl}-4′-(Trifluoromethyl)[Biphenyl]-2-Carboxamide]",4.9
3,"Cc1cn(C)nc1C1(CNC(=O)c2ccccc2-c2ccc(C(F)(F)F)cc2)NC(=O)NC1=O (stereo not drawn) [Example 70, Ent-N-{[4-(1,4-Dimethyl-1H-Pyrazol-3-Yl)-2,5-Dioxoimidazolidin-4-Yl]Methyl}-4′-(Trifluoromethyl)[Biphenyl]-2-Carboxamide]",4.5
4,"Cn1nccc1C1(CNC(=O)c2ccccc2-c2ccc(S(C)(=O)=O)cc2)NC(=O)NC1=O (stereo not drawn) [Example 194, Ent-N-{[4-(1-Methyl-1H-Pyrazol-5-Yl)-2,5-Dioxoimidazolidin-4-Yl]Methyl}-4′-(Methylsulfonyl)[Biphenyl]-2-Carboxamide]",8.9
5,"O=C1NC(=O)[C@](CNC(=O)c2ccccc2-c2ccc(C3CC3(F)F)cc2)(C2CC2)N1 (stereo partly drawn) [Example 111, N-{[(4R)-4-Cyclopropyl-2,5-Dioxoimidazolidin-4-Yl]Methyl}-4′-(2,2-Difluorocyclopropyl)[Biphenyl]-2-Carboxamide]",7.9
6,"Cc1nonc1C1(CNC(=O)c2ccccc2-c2ccc(C(F)(F)F)cc2)NC(=O)NC1=O (stereo not drawn) [Example 73, Ent-N-{[4-(4-Methyl-1,2,5-Oxadiazol-3-Yl)-2,5-Dioxoimidazolidin-4-Yl]Methyl}-4′-(Trifluoromethyl)[Biphenyl]-2-Carboxamide]",20
7,"O=C1NC(=O)[C@](CNC(=O)c2ccccc2-c2ccc(F)cc2)(C2CC2)N1 [Example 129, N-{[(4R)-4-Cyclopropyl-2,5-Dioxoimidazolidin-4-Yl]Methyl}-4′-Fluoro[Biphenyl]-2-Carboxamide]",8.7
8,"O=C1NC(=O)C(CNC(=O)c2ccc(F)cc2-c2ccc(C(F)(F)F)cc2)(c2ncsc2C(F)(F)F)N1 (stereo not drawn) [Example 268, Ent-N-({2,5-Dioxo-4-[5-(Trifluoromethyl)-1,3-Thiazol-4-Yl]Imidazolidin-4-Yl}Methyl)-5-Fluoro-4′-(Trifluoromethyl)[Biphenyl]-2-Carboxamide]",27
9,"Cn1nccc1C1(CNC(=O)c2ccc(F)cc2-c2ccc(C(F)(F)F)cc2)NC(=O)NC1=O (racemic) [Example 183, Rac-5-Fluoro-N-{[4-(1-Methyl-1H-Pyrazol-5-Yl)-2,5-Dioxoimidazolidin-4-Yl]Methyl}-4′-(Trifluoromethyl)[Biphenyl]-2-Carboxamide]",19
10,"Cc1nn(C)cc1C1(CNC(=O)c2ccccc2-c2ccc(C(F)(F)F)nc2)NC(=O)NC1=O (racemic) [Example 55, Rac-N-{[4-(1,3-Dimethyl-1H-Pyrazol-4-Yl)-2,5-Dioxoimidazolidin-4-Yl]Methyl}-2-[6-(Trifluoromethyl)Pyridin-3-Yl]Benzamide]",30
11,"O=C1NC(=O)C(CNC(=O)c2ccc(F)cc2-c2ccc(C(F)(F)F)cc2)(c2ncsc2C2CC2)N1 (stereo not drawn) [Example 273, Ent-N-{[4-(5-Cyclopropyl-1,3-Thiazol-4-Yl)-2,5-Dioxoimidazolidin-4-Yl]Methyl}-5-Fluoro-4′-(Trifluoromethyl)[Biphenyl]-2-Carboxamide]",26.8
12,"O=C1NC(=O)C(CNC(=O)c2ccc(F)cc2-c2ccc(C(F)(F)F)cc2)(C23CC(F)(C2)C3)N1 (racemic) [Example 293, Rac-5-Fluoro-N-{[4-(3-Fluorobicyclo[1.1.1]Pentan-1-Yl)-2,5-Dioxoimidazolidin-4-Yl]Methyl}-4′-(Trifluoromethyl)[Biphenyl]-2-Carboxamide]",> 50
13,"COc1cc(Cl)ccc1-c1ccccc1C(=O)NCC1(c2ccnn2C)NC(=O)NC1=O (single isomer, unassigned; ent-4) [Example 314, Ent-4′-Chloro-2′-Methoxy-N-{[4-(1-Methyl-1H-Pyrazol-5-Yl)-2,5-Dioxoimidazolidin-4-Yl]Methyl}[Biphenyl]-2-Carboxamide]",> 50
14,"O=C1NC(=O)[C@](CNC(=O)c2cc(F)c(F)cc2-c2ccc(C(F)(F)F)cc2)(C2CC2)N1 [Example 20, N-{[(4R)-4-Cyclopropyl-2,5-Dioxoimidazolidin-4-Yl]Methyl}-4,5-Difluoro-4′-(Trifluoromethyl)[Biphenyl]-2-Carboxamide]",28
15,"Cc1ccc(-c2ccccc2C(=O)NCC2(c3ccccn3)NC(=O)NC2=O)cc1 (racemic) [Example 164, Rac-N-{[2,5-Dioxo-4-(Pyridin-2-Yl)Imidazolidin-4-Yl]Methyl}-4′-Methyl[Biphenyl]-2-Carboxamide]",14
